Experimental data as given in PMC9116478, “Population Pharmacokinetics of Caspofungin and Dose Simulations in Heart Transplant Recipients” (Antimicrobial Agents and Chemotherapy, 2022).
Where two headings read alike, the source gives them in different places.

Assays:
[1] = system: Candida parapsilosis; settings: pharmacodynamic target used for PTA; cited from earlier work
Description: (§1) This study used Matlab software for simulations. The simulated data were based on the virtual patients with different ALB levels (25, 30, 37, 45, and 50 g/liter) at various dosage regimens (50-, 70-, 100-, 150-, and 200-mg maintenance dose). The median ALB level of the research population was 37 g/liter. We generated 1,000 virtual patients whose pharmacokinetic parameters were randomly assigned according to the distributions with the median of CL, θALB-CL, and CL interindividual variations and their calculated standard deviations from bootstraps (Table 2) for the simulations. AUC was calculate ...

[2] = system: Candida glabrata; settings: pharmacodynamic target used for PTA; cited from earlier work
Description: as §1

[3] = system: Candida albicans; settings: pharmacodynamic target used for PTA; cited from earlier work
Description: as §1

[4] = under normal plasma protein levels; cited from earlier work
Description: Kurland et al. ([26]) found a negative correlation between hypoalbuminemia and elimination rate constant. […] They also identified total bilirubin (TBIL) as another covariate. ALB and TBIL levels were collectively found to affect CL of caspofungin.

[5] = Population pharmacokinetics of caspofungin in HTx and non-HTx patients (plasma LC-MS/MS, NONMEM two-compartment model); assay type: in vivo, human (patients); settings: for clearance / Cmax: human, iv; for Cmax: read-out: Cmax (peak plasma concentration)
Description: This was a prospective, single-center, open-label study. We recruited patients who underwent HTx at the Guangdong Provincial People’s Hospital in the SICU from July 2019 to July 2021. The inclusion criteria were: (i) patients aged 18 years or older who received caspofungin in SICU and accepted cardiac surgery and (ii) acceptability of multiple blood sampling. Patients who were allergic to caspofungin, those receiving drugs that can affect the PK of caspofungin, and those who could not receive multiple blood sampling were excluded. Patients who underwent HTx in SICU were recruited as the HTx group. Patients who never received HTx but underwent cardiac surgery and being in SICU were recruited in the control group. This study was approved by the Ethics Committee of Guangdong Provincial People’s Hospital, Guangdong Academy of Medical Sciences (approval number GDREC2018355(R1)H).
Caspofungin (Laboratoires Merck Sharp & Dohme Chibret, France) was administered by 1-h intravenous infusion at a dose of 50 mg every 24 h after a loading dose of 70 mg. Blood samples were collected before administration and at 1, 2, 6, 10, 16, and 24 h after the administration of caspofungin for at least 3 days. Plasma was separated by centrifugation of blood samples at 2,000 × g for 10 min at 4°C and stored at −80°C before analysis.
All plasma samples were detected by the liquid chromatography-tandem mass spectrometry (LC-MS/MS) method. First, 200 μL of acetonitrile-dissolved extraction working solution was added to 100 μL of plasma sample and mixed by vortexing at 3,000 rpm for 1 min. After centrifugation at 14,000 rpm for 15 min at 4°C, 2 μL supernatant was injected for LC-MS/MS analysis. The chromatographic column was an Agilent poroshell 120 SB-C18 (2.7 μm, 3.0 × 50 mm) column. The mobile phase was acetonitrile with 0.1% formic acid (A) and water with 0.1% formic acid (B). In the initial 0 to 0.5 min, the mobile phase was composed of 95% B and 5% A, and then within 0.5 to 1.5 min, the mobile phase B decreased linearly from 95% to 5% and remained unchanged for 1.5 to 2 min. Finally, it returned to 95% B and 5% A, and the entire analysis time was 5 min. The flow rate was 0.5 mL/min, and the column temperature was 35°C. A positive ion mode multiple reaction monitoring detection mode through electrospray ionization was performed with the transitions of m/z 547.3 → 538.2 for caspofungin and m/z 549.3 → 540.3 for caspofungin-d4 (IS). The linear range of the method was 0.4 to 25 mg/liter. The intraday and interday precision were 1.56 to 3.32% and 3.40 to 7.48%, respectively, and the deviation of accuracy was 0.96 to 2.21%.
We analyzed population PK data using the nonlinear mixed-effects modeling software NONMEM 7.3 (version 7.3, ICON plc, NY, USA). We employed one-, two-, and three-compartment pharmacokinetic models to fit the data and selected the most suitable basic structural model. Further, all potential covariates for caspofungin PK parameters reported in previous studies were analyzed. The covariates included demographic characteristics, renal function indices, liver function indices, HTx status, ECMO, and CRRT. Different covariate types have different variable models. Discrete covariates (such as sex) were modeled as follows. (1) Cij=Ctv,j×θjcov×enj
For continuous covariates (such as weight), an exponential model was selected with average covariates values and an adjusting factor. (2) Cij=Ctv,j×(cov/covave)^θj×e^ηj
In the above equations, Cij is the individual value. Ctv,j is the population typical value. cov in equation 1 is expressed as 0 or 1, cov in equation 2 is the value of the covariate, and θj is an impact factor. covave is the average value of a continuous covariate. Interindividual variability is shown as ηj, which is normally distributed with mean 0 and variance ω^2. Residual variability was modeled using a mixture of additive and proportional error models. […]

[6] = Control group (n = 31), median (range)
[7] = Heart transplantation group (n = 27), median (range)
[8] = population estimate, 58 patients, 414 plasma concentrations, 50 mg q24h i.v. after 70 mg loading dose, two-compartment model

## CC[C@H](C)C[C@H](C)CCCCCCCCC(=O)N[C@H]1C[C@@H](O)[C@@H](NCCN)NC(=O)[C@@H]2[C@@H](O)CCN2C(=O)[C@H]([C@H](O)CCN)NC(=O)[C@H]([C@H](O)[C@@H](O)c2ccc(O)cc2)NC(=O)[C@@H]2C[C@@H](O)CN2C(=O)[C@H]([C@@H](C)O)NC1=O [caspofungin]
[1]
  target AUC/MIC value: > 1,185
[2]
  target AUC/MIC value: > 450
[3]
  target AUC/MIC value: greater than 865
[4]
  protein binding rate: 97%
[5]; [6]
  Vc: 5.27 L
  Vp: 6.31 L
[5]; [7]
  Vc: 3.14 L
  Vp: 4.98 L
[5]; control group, median
  Q: 2.85 L/h
[5]; population estimate, 58 patients (27 HTx, 31 non-HTx), 414 plasma concentrations, 50 mg q24h 1-h i.v. infusion after 70 mg loading dose, LC-MS/MS, two-compartment model, read-out: CL (clearance), final model estimate (converted)
  clearance: 6.42 mL/min
[5]; plasma, 50 mg, Control group (n = 31), median (range), read-out: CL (converted)
  clearance: 7.5 mL/min
[5]; plasma, 50 mg, Control group, non-HTx critically ill patients (n = 31), median (range), 50 mg q24h 1-h i.v. infusion after 70 mg loading dose
  Cmax: 7890 ng/mL
[5]; plasma, 50 mg, Heart transplantation group (n = 27), median (range), 50 mg q24h 1-h i.v. infusion after 70 mg loading dose
  Cmax: 11700 ng/mL
[5]; plasma, 50 mg, Heart transplantation group (n = 27), median (range), read-out: CL (converted)
  clearance: 5.83 mL/min
[5]; [8]
  Q (intercompartmental clearance), final model estimate: 2.85 L/h
  Vc (volume of distribution of the central compartment), final model estimate: 4.27 L
  Vp (volume of distribution of the peripheral compartment), final model estimate: 6.01 L
